Format in all cases: functional
Assay [1] deals with Streptococcus pneumoniae. The experiment in a line: Antibacterial activity against erythromycin-resistant ermB expressing Streptococcus pneumoniae 1095.
Assay [2] deals with Streptococcus pneumoniae. The experiment in a line: Antibacterial activity against erythromycin-resistant mef expressing Streptococcus pneumoniae 1175.
For assay [3], the system named is Streptococcus pyogenes. Description: Antibacterial activity against erythromycin-resistant ermB expressing Streptococcus pyogenes 1079.
Assay [4] relates to Haemophilus influenzae. The experiment in a line: Antimicrobial activity against Haemophilus influenzae 1325.
Assay [5] concerns Streptococcus pneumoniae. The experiment in a line: Protection against erythromycin-resistant Streptococcus pneumoniae 1095 infection in po dosed mouse after 4 days.
The subject of assay [6] is Streptococcus pyogenes. Description: Antibacterial activity against erythromycin-resistant Streptococcus pyogenes 1068 in mouse soft tissue infection model assessed as reduction in bacterial count at 100 mg/kg, po after 24 hrs.
The test system of assay [7] is Haemophilus influenzae. Description: Antibacterial activity against Haemophilus influenzae 1100 in po dosed gerbils.
Setting [8] is: Streptococcus pneumoniae, read-out: MIC.

SMILES strings stand for the structures. Converted amounts (≈) assume the structure as drawn. The source made the active and inactive calls. The calls are words filed in the database; no cut-off is given here.

What is called ED50 is the dose at which the effect has come halfway, by size or by number of responders. Higher therefore signals a need for a large dose.

Turning to `CC[C@H]1OC(=O)[C@H](C)C(=O)[C@H](C)[C@@H](O[C@@H]2O[C@H](C)C[C@H](N(C)C)[C@H]2O)[C@](C)(OC)C[C@@H](C)C(=O)[C@H](C)[C@H]2N(CNC(=O)NCc3ccc4cccnc4c3)C(=O)O[C@]12C`, the MIC in assay [1] (setting [8]) is below 0.063 µg/mL; in assay [2] it was 0.5 µg/mL (≈ 0.605 µM); in assay [3] it was 64 µg/mL (≈ 77.5 µM); in assay [4] it was 4 µg/mL (≈ 4.84 µM).

For the molecule `CC[C@H]1OC(=O)[C@H](C)C(=O)[C@H](C)[C@@H](O[C@@H]2O[C@H](C)C[C@H](N(C)C)[C@H]2O)[C@](C)(OC)C[C@@H](C)C(=O)[C@H](C)[C@H]2N(CCCCn3cnc(-c4cccnc4)c3)C(=O)O[C@]12C` [TELITHROMYCIN], the PD50 in assay [5] was 71.5 mg/kg. The outcome in assay [6] was inactive. For the same molecule, the MIC was below 0.063 µg/mL in assay [1] (setting [8]), 0.378 µg/mL (≈ 0.466 µM) in assay [2], 18 µg/mL (≈ 22.2 µM) in assay [3] and 3.9 µg/mL (≈ 4.8 µM) in assay [4]. The ED50 in assay [7] was found to be 27.5 mg/kg.

Regarding `CC[C@H]1OC(=O)[C@H](C)C(=O)[C@H](C)[C@@H](O[C@@H]2O[C@H](C)C[C@H](N(C)C)[C@H]2O)[C@](C)(OC)C[C@@H](C)C(=O)[C@H](C)[C@H]2N(CNC(=O)NCc3cnc4ccccc4n3)C(=O)O[C@]12C`, the MIC in assay [1] (setting [8]) was below 0.063 µg/mL; in assay [2], 0.25 µg/mL (≈ 0.302 µM); in assay [3] it was above 64 µg/mL; in assay [4], 4 µg/mL (≈ 4.84 µM).

`CC[C@H]1OC(=O)[C@@](C)(F)C(=O)[C@H](C)[C@@H](O[C@@H]2O[C@H](C)C[C@H](N(C)C)[C@H]2O)[C@](C)(OC)C[C@@H](C)C(=O)[C@H](C)[C@H]2N(CNC(=O)OCc3ccc4nccnc4c3)C(=O)O[C@]12C` returned a PD50 in assay [5] of 71.2 mg/kg. The Log10 cfu in assay [6] amounted to 2.3. Moreover, the MIC is below 0.063 µg/mL in assay [1] (setting [8]), below 0.063 µg/mL in assay [2], 1 µg/mL (≈ 1.18 µM) in assay [3] and 2 µg/mL (≈ 2.36 µM) in assay [4]. Also, in assay [7], the 50% effect level (ED50) was put at a dose of 39.5 mg/kg.

With `CC[C@H]1OC(=O)[C@H](C)C(=O)[C@H](C)[C@@H](O[C@@H]2O[C@H](C)C[C@H](N(C)C)[C@H]2O)[C@](C)(OC)C[C@@H](C)C(=O)[C@H](C)[C@H]2N(CNC(=O)NCc3ccc4ncccc4c3)C(=O)O[C@]12C`, the MIC is 0.25 µg/mL (≈ 0.303 µM) in assay [1] (setting [8]), 0.125 µg/mL (≈ 0.151 µM) in assay [2], 4 µg/mL (≈ 4.84 µM) in assay [3] and 1 µg/mL (≈ 1.21 µM) in assay [4].

For the molecule `CC[C@H]1OC(=O)[C@H](C)C(=O)[C@H](C)[C@@H](O[C@@H]2O[C@H](C)C[C@H](N(C)C)[C@H]2O)[C@](C)(OC)C[C@@H](C)C(=O)[C@H](C)[C@H]2N(CNC(=O)NCc3cncc4ccccc34)C(=O)O[C@]12C`, the MIC was below 0.063 µg/mL in assay [1] (setting [8]), below 0.063 µg/mL in assay [2], 16 µg/mL (≈ 19.4 µM) in assay [3] and 4 µg/mL (≈ 4.84 µM) in assay [4].

`CC[C@H]1OC(=O)[C@H](C)C(=O)[C@H](C)[C@@H](O[C@@H]2O[C@H](C)C[C@H](N(C)C)[C@H]2O)[C@](C)(OC)C[C@@H](C)C(=O)[C@H](C)[C@H]2N(CCNC(=O)NCc3cnc4ccccc4c3)C(=O)O[C@]12C`: the MIC in assay [1] (setting [8]) was above 64 µg/mL; in assay [2] it was 0.5 µg/mL (≈ 0.595 µM); in assay [3] it was above 64 µg/mL; in assay [4], 16 µg/mL (≈ 19 µM).

Take `CC[C@H]1OC(=O)[C@H](C)C(=O)[C@H](C)[C@@H](O[C@@H]2O[C@H](C)C[C@H](NC)[C@H]2O)[C@](C)(OC)C[C@@H](C)C(=O)[C@H](C)[C@H]2N(CNC(=O)OCc3cnc4ccccc4c3)C(=O)O[C@]12C`: the MIC in assay [1] (setting [8]) was below 0.063 µg/mL; in assay [2], below 0.063 µg/mL; in assay [3], 64 µg/mL (≈ 78.7 µM); in assay [4], 8 µg/mL (≈ 9.84 µM).

Regarding `CC[C@H]1OC(=O)[C@H](C)C(=O)[C@H](C)[C@@H](O[C@@H]2O[C@H](C)C[C@H](N(C)C)[C@H]2O)[C@](C)(OC)C[C@@H](C)C(=O)[C@H](C)[C@H]2N(CNC(=O)Nc3cnc4ccccc4c3)C(=O)O[C@]12C`, the MIC in assay [1] (setting [8]) was 0.25 µg/mL (≈ 0.308 µM); in assay [2] it was below 0.063 µg/mL; in assay [3] it was above 64 µg/mL; in assay [4] it was 16 µg/mL (≈ 19.7 µM).

On to `CC[C@H]1OC(=O)[C@H](C)C(=O)[C@H](C)[C@@H](O[C@@H]2O[C@H](C)C[C@H](N(C)C)[C@H]2O)[C@](C)(OC)C[C@@H](C)C(=O)[C@H](C)[C@H]2N(CCNC(=O)OCc3cnc4ccccc4c3)C(=O)O[C@]12C`, for which the MIC in assay [1] is above 64 µg/mL; in assay [2], 0.125 µg/mL (≈ 0.149 µM); in assay [3], above 64 µg/mL; in assay [4], 32 µg/mL (≈ 38 µM).

On to `CC[C@H]1OC(=O)[C@H](C)C(=O)[C@H](C)[C@@H](O[C@@H]2O[C@H](C)C[C@H](N(C)C)[C@H]2O)[C@](C)(OC)C[C@@H](C)C(=O)[C@H](C)[C@H]2N(CNC(=O)OCc3ccc4ncccc4c3)C(=O)O[C@]12C`, for which the MIC was 0.25 µg/mL (≈ 0.302 µM) in assay [1] (setting [8]), below 0.063 µg/mL in assay [2], 8 µg/mL (≈ 9.67 µM) in assay [3] and 2 µg/mL (≈ 2.42 µM) in assay [4].

As for `CC[C@H]1OC(=O)[C@H](C)C(=O)[C@H](C)[C@@H](O[C@@H]2O[C@H](C)C[C@H](N(C)C)[C@H]2O)[C@](C)(OC)C[C@@H](C)C(=O)[C@H](C)[C@H]2N(CNC(=O)OCc3ccc4cccnc4c3)C(=O)O[C@]12C`, the MIC was below 0.063 µg/mL in assay [1] (setting [8]), below 0.063 µg/mL in assay [2], 64 µg/mL (≈ 77.4 µM) in assay [3] and 4 µg/mL (≈ 4.84 µM) in assay [4].

Regarding `CC[C@H]1OC(=O)[C@H](C)C(=O)[C@H](C)[C@@H](O[C@@H]2O[C@H](C)C[C@H](N(C)C)[C@H]2O)[C@](C)(OC)C[C@@H](C)C(=O)[C@H](C)[C@H]2N(CNC(=O)OCc3ccnc4ccccc34)C(=O)O[C@]12C`, the MIC in assay [1] (setting [8]) is 0.5 µg/mL (≈ 0.605 µM); in assay [2], below 0.063 µg/mL; in assay [3], 64 µg/mL (≈ 77.4 µM); in assay [4] it was 8 µg/mL (≈ 9.67 µM).

Regarding `CC[C@H]1OC(=O)[C@@](C)(F)C(=O)[C@H](C)[C@@H](O[C@@H]2O[C@H](C)C[C@H](N(C)C)[C@H]2O)[C@](C)(OC)C[C@@H](C)C(=O)[C@H](C)[C@H]2N(CNC(=O)NCc3ccc4nccnc4c3)C(=O)O[C@]12C`, the MIC in assay [1] (setting [8]) was below 0.063 µg/mL; in assay [2], below 0.063 µg/mL; in assay [3], 1 µg/mL (≈ 1.18 µM); in assay [4], 1 µg/mL (≈ 1.18 µM).

Turning to `CC[C@H]1OC(=O)[C@@](C)(F)C(=O)[C@H](C)[C@@H](O[C@@H]2O[C@H](C)C[C@H](N(C)C)[C@H]2O)[C@](C)(OC)C[C@@H](C)C(=O)[C@H](C)[C@H]2N(CNC(=O)OCc3cccc4nccnc34)C(=O)O[C@]12C`, the MIC is below 0.063 µg/mL in assay [1] (setting [8]), below 0.063 µg/mL in assay [2], 22.6 µg/mL (≈ 26.7 µM) in assay [3] and 4 µg/mL (≈ 4.73 µM) in assay [4].

Consider `CC[C@H]1OC(=O)[C@H](C)C(=O)[C@H](C)[C@@H](O[C@@H]2O[C@H](C)C[C@H](N(C)C)[C@H]2O)[C@](C)(OC)C[C@@H](C)C(=O)[C@H](C)[C@H]2N(CNC(=O)OCc3ccc4nccnc4c3)C(=O)O[C@]12C`, for which the MIC is below 0.063 µg/mL in assay [1] (setting [8]), below 0.063 µg/mL in assay [2], 16 µg/mL (≈ 19.3 µM) in assay [3] and 2 µg/mL (≈ 2.42 µM) in assay [4].

With `CC[C@H]1OC(=O)[C@H](C)C(=O)[C@H](C)[C@@H](O[C@@H]2O[C@H](C)C[C@H](N(C)C)[C@H]2O)[C@](C)(OC)C[C@@H](C)C(=O)[C@H](C)[C@H]2N(CNC(=O)OCc3cnc4ccccc4n3)C(=O)O[C@]12C`, the MIC in assay [1] (setting [8]) is 0.25 µg/mL (≈ 0.302 µM); in assay [2], 0.25 µg/mL (≈ 0.302 µM); in assay [3], above 64 µg/mL; in assay [4] it was 8 µg/mL (≈ 9.66 µM).

For `CC[C@H]1OC(=O)[C@H](C)C(=O)[C@H](C)[C@@H](O[C@@H]2O[C@H](C)C[C@H](N(C)C)[C@H]2O)[C@](C)(OC)C[C@@H](C)C(=O)[C@H](C)[C@H]2N(CNC(=O)NCc3ccc4nccnc4c3)C(=O)O[C@]12C`, the MIC in assay [1] (setting [8]) is below 0.063 µg/mL; in assay [2] it was 0.25 µg/mL (≈ 0.302 µM); in assay [3], 2 µg/mL (≈ 2.42 µM); in assay [4], 2 µg/mL (≈ 2.42 µM).

On to `CC[C@H]1OC(=O)[C@H](C)C(=O)[C@H](C)[C@@H](O[C@@H]2O[C@H](C)C[C@H](N(C)C)[C@H]2O)[C@](C)(OC)C[C@@H](C)C(=O)[C@H](C)[C@H]2N(CNC(=O)OCc3cccc4ncccc34)C(=O)O[C@]12C`, for which the MIC in assay [1] (setting [8]) turned out to be 0.125 µg/mL (≈ 0.151 µM); in assay [2] it was 0.125 µg/mL (≈ 0.151 µM); in assay [3], 16 µg/mL (≈ 19.3 µM); in assay [4], 32 µg/mL (≈ 38.7 µM).

The record behind these values is ChEMBL document CHEMBL1149685, “Novel tethers in ketolide antibiotics” (2007).
